Test results published in patent publication US20090137580A1, “Fused Heterocyclic Derivatives and Use Thereof” (Takeda Pharmaceutical Company Limited, priority 2005, published 2009).
Counter-ions that a name gives are not always drawn.

Experiments:
[1] = tested on: Human umbilical vein endothelial cells (HUVEC); assay: Vascular endothelial cell growth inhibitory test; assay type: cell-based; details: VEGF 120 ng/mL, culture 5 days, XTT reagent
Method: Human umbilical vein endothelial cells (HUVEC, purchased from KURABO) were cultured in a gas incubator (37° C., CO2 5%) in a vascular endothelial cell medium (Invitrogen) containing 5% fetal calf serum and a basic fibroblast growth factor (2.5 ng/mL). To be specific, HUVEC suspended in the aforementioned vascular endothelial cell medium (Invitrogen) containing 5% fetal calf serum were seeded into a 96 well flat-bottom plate (50 μL, 3000 cells each well). After culturing overnight, various concentrations of test substance and the final concentration (120 ng/mL) of vascular endothelial growth factor (VEGF) were dissolved in a vascular endothelial cell medium (Invitrogen) containing 5% fetal calf serum and added to each well (50 μL). After culturing for 5 days, an XTT reagent (Wako Pure Chemical Industries, Ltd.) was added to each well (10 μL), and reacted in a gas incubator (37° C., CO2 5%) for 2-3 hr. The absorbance at 450 nm was measured by a microtiter plate reader, and the cell growth inhibitory activity was determined.

[2] = molecular target: T1, PDGFR Alpha Receptor Kinase (PDGFRalpha) (Homo sapiens, UniProt P16234); assay: Determination of PDGFR alpha receptor kinase (PDGFRalpha) inhibitory activity (alpha screen); assay type: biochemical; details: PDGFRalpha intracellular domain protein, 25 μM ATP buffer; read-out: IC50 value (PDGFRalpha kinase inhibition)
T1 construct: PDGFRalpha intracellular domain protein (UPSTATE); purchased UPSTATE
T1 sequence (P16234 550-1089 limits assumed): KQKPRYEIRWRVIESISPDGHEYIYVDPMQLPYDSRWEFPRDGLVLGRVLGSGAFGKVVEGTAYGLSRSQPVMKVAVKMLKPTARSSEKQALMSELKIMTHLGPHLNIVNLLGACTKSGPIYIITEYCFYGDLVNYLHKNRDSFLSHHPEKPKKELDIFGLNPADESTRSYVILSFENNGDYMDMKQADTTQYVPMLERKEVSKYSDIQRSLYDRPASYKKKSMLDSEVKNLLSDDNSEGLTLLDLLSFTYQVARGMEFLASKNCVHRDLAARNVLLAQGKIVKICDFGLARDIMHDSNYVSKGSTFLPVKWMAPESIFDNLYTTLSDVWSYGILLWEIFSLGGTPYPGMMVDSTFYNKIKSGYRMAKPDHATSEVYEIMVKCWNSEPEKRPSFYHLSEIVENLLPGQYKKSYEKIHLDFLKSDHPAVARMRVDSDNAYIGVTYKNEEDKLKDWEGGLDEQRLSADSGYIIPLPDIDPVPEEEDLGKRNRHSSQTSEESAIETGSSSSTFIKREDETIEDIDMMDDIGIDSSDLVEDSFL
Method: The test compound dissolved in dimethyl sulfoxide (DMSO) was diluted with a buffer (50 mM Tris-HCl, pH 7.5, 5 mM MgCl2, 5 mM MnCl2, 2 mM dithiothreitol, 0.01% Tween-20).
Acceptor beads: PerkinElmer for alpha screen assay) was added to quench the reaction. The reaction solution was stood at 25° C. for 16 hr, and the count was measured using a plate reader·Fusion™ (manufactured by PerkinElmer). The kinase inhibitory rate (%) of the test compound was calculated by the following formula.
(§1) Inhibitory rate(%)=(1−(count of test compound−blank)÷(control−blank))×100
(§2) wherein the count of the solution reacted without addition of the compound is “control” and the count of the solution without addition of the compound and ATP is “blank”.

[3] = molecular target: T2, TIE2 Receptor Kinase (TIE2) (Homo sapiens, UniProt Q02763); assay: Determination of TIE2 receptor kinase (TIE2) inhibitory activity (alpha screen); assay type: biochemical; details: TIE2 intracellular domain protein, 5 μM ATP buffer; read-out: IC50 value (TIE2 kinase inhibition)
T2 construct: TIE2 intracellular domain protein (UPSTATE); purchased UPSTATE
T2 sequence (Q02763 770-1124 limits assumed): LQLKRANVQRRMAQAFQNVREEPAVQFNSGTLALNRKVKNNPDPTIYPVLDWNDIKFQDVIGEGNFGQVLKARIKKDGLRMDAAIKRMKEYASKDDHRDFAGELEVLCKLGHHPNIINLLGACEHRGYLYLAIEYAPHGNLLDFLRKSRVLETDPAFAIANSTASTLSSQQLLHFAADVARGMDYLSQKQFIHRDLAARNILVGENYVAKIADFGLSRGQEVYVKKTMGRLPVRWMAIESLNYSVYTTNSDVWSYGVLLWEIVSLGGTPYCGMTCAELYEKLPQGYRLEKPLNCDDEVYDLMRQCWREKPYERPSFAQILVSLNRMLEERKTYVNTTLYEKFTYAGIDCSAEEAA
Method: The test compound dissolved in dimethyl sulfoxide (DMSO) was diluted with a buffer (50 mM Tris-HCl, pH 7.5, 5 mM MgCl2, 5 mM MnCl2, 2 mM dithiothreitol, 0.01% Tween-20). A buffer (10 μl) containing 50 ng/ml TIE2 intracellular domain protein (UPSTATE) and 250 ng/ml biotin-labeled polypeptide biotinyl-poly-Glu:Tyr (4:1) (CIS Bio International) was added to the compound solution (5 μl). At 5 min after mixing a kinase enzyme, the compound and a biotin-labeled polypeptide, a buffer (10 μl) containing 5 μM ATP was added to the obtained mixture, the mixture was allowed to react at 25° C. for 10 min. Then, 25 μl of a stop solution (100 mM EDTA·2 sodium salt, 62.5 mM HEPES buffer (pH 7.4), 250 mM NaCl, 0.1% bovine serum albumin, 10 μg/ml Streptavidin Donor beads: PerkinElmer for alpha screen assay, 10 μg/ml Anti-phosphotyrosine (P-Tyr-66) Acceptor beads: PerkinElmer for alpha screen assay) was added to quench the reaction. The reaction solution was stood at 25° C. for 16 hr, and the count was measured using a plate reader·Fusion™ (manufactured by PerkinElmer). The kinase inhibitory rate (%) of the test compound was calculated by the following formula.
as §1, §2
Prism (Graphpad Software) according to the nonlinear-regression sigmoidal dose-response (variable slope) analysis method.

[4] = molecular target: T3, VEGF Receptor 2 Kinase (VEGFR2) (Homo sapiens, UniProt P35968); assay: Determination of VEGF receptor 2 kinase (VEGFR2) inhibitory activity (alpha screen); assay type: biochemical; details: VEGFR2 intracellular domain protein, 25 μM ATP buffer, read-out: inhibitory rate (kinase inhibitory rate of VEGFR2)
T3 construct: made in house; host or cells: SF-21 insect cells, recombinant baculovirus BAC-VEGFR2 (pFASTBAC1)
T3 sequence (P35968 786-1356 limits assumed): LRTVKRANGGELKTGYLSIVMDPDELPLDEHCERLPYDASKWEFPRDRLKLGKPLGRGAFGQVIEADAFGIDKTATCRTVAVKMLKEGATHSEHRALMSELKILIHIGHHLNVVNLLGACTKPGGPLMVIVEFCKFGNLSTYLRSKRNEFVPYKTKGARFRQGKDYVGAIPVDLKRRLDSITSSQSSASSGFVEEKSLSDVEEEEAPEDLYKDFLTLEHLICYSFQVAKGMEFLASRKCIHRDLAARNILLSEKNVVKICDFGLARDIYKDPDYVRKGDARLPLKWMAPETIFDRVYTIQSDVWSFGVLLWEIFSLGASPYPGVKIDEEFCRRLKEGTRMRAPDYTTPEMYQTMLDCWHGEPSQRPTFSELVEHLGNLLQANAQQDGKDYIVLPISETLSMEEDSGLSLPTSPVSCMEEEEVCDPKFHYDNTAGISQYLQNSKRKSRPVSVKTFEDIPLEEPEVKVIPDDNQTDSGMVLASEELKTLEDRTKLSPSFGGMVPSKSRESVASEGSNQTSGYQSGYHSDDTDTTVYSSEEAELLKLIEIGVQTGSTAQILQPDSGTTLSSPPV
Method: For cloning of human VEGF receptor 2 (hereinafter to be abbreviated as VEGFR2) gene, PCR was performed using cDNA Libraries Human Placenta (Clontech) as a template. The primer used for PCR was prepared by, based on the information of the base sequence (Genbank Accession AF035121) of VEGFR2 gene, adding a base sequence encoding the flag peptide and a restriction enzyme recognition sequence to the base sequence (2671-4374 of Genbank Accession AF035121) encoding the VEGFR2 intracellular domain, so that a flag tag would be added to the N terminal of the protein. The primer base sequence is shown in the following.
PCR reaction was carried out using a KOD-plus kit (TOYOBO). The obtained PCR product was electrophoresed on an agarose gel (1%), and a DNA fragment amplified by PCR was recovered from the gel and digested with restriction enzymes Sal I and Sph I. The DNA after the restriction enzyme treatment was electrophoresed on an agarose gel (1%), and the obtained DNA fragment was recovered and ligated to the plasmid pFASTBAC1 (Invitrogen) digested with restriction enzymes Sal I and Sph I to give an expression plasmid pFB-VEGFR2. The base sequence of the inserted fragment was confirmed to have matched with the base sequence (2671-4374 of Genbank Accession AF035121) of the VEGFR2 intracellular domain. Furthermore, virus stock BAC-VEGFR2 of the recombinant Baculovirus was prepared using BAC-TO-BAC Baculovirus Expression System (Invitrogen).
SF-21 cells were inoculated into 1 L of Sf-900IISFM medium (Invitrogen) containing 10% fetal calf serum (trace), 50 mg/L Gentamicin (Invitrogen) and 0.1% Pluronic F-68 (Invitrogen) at 1×10^6 cells/ml, and shake culture was performed using a 2 L Erlenmeyer flask at 27° C., 100 rpm. After 24 hr of culture, recombinant Baculovirus BAC-VEGFR2 (13.4 mL) was added, and the culture was continued for 3 days. The culture medium was centrifuged at 2,000 rpm for 5 min to give virus-infected cells. The infected cells were washed with phosphate buffered saline (Invitrogen), centrifuged under the same conditions, and preserved at −80° C. The cryopreserved cells were thawed in ice, suspended in 30 mL of buffer A (Tris buffer, pH 7.4, containing 20% glycerol and 0.15M NaCl (50 mM)) supplemented with Complete Protease Inhibitor (Boehringer), and disrupted three times using a polytron homogenizer (Kinematica) at 20,000 rpm, 30 sec. The disrupt was clarified by centrifugation at 40,000 rpm, 30 min and filtered through a 0.45 μm filter. The filtrate was passed through a column packed with Anti-FLAG M2 Affinity Gel (Sigma Ltd., 4 mL) at a flow rate of about 0.5 mL/min. The column was washed with buffer A and eluted with buffer A containing 100 μg/mL FLAG peptide. The eluate was concentrated by Vivaspin 20 (Viva Science) having a fraction molecular weight of 30K. The concentrate was applied to NAP™ 25 column (Amersham Biosciences) equilibrated with buffer A for buffer exchange. The fractions containing the VEGFR2 intracellular domain protein were collected, glycerol was added to the final concentration of 50% and the fractions cryopreserved at ˜80° C.
The test compound dissolved in dimethyl sulfoxide (DMSO) was diluted with a buffer (50 mM Tris-HCl, pH 7.5, 5 mM MgCl2, 5 mM MnCl2, 2 mM dithiothreitol, 0.01% Tween-20). A buffer (10 μl) containing 50 ng/ml VEGFR2 intracellular domain protein and 250 ng/ml biotin-labeled polypeptide biotinyl-poly-Glu:Tyr (4:1) (CIS Bio International) was added to the compound solution (5 μl). A buffer (10 μl) containing 25 μM ATP was added to the obtained mixture, the mixture was allowed to react at 25° C. for 5 min. Then, 25 μl of a stop solution (100 mM EDTA·2 sodium salt, 62.5 mM HEPES buffer (pH 7.4), 250 mM NaCl, 0.1% bovine serum albumin, 10 μg/ml Streptavidin Donor beads: PerkinElmer for alpha screen assay, 10 μg/ml Anti-phosphotyrosine (P-Tyr-100) Acceptor beads: PerkinElmer for alpha screen assay) was added to quench the reaction. […]

Row | IC50 [2] | IC50 [3] | inhibition at 1 µM [4] | SMILES | IC50 [1] | IC50 ([1]; Homo sapiens, 120 h) | IC50 ([1]; hydrochloride)
1 | – | – | – | Cc1cc2ncnc(Oc3ccc(NC(=O)Nc4cccc(C(F)(F)F)c4)c(Cl)c3)c2n1C [Example 124, N-{2-chloro-4-[(5,6-dimethyl-5H-pyrrolo[3,2-d]pytimidin-4-yl)oxy]phenyl}-N′-[3-(trifluoromethyl)phenyl]urea] | 13 nM | – | –
2 | – | – | – | Cn1ccc2ncnc(Oc3ccc(NC(=O)Nc4cccc(C(F)(F)F)c4)c(F)c3)c21 [Example 29, N-{2-fluoro-4-[(5-methyl-5H-pyrrolo[3,2-d]pyrimidin-4-yl)oxy]phenyl}-N′-[3-(trifluoromethyl)phenyl]urea] | 4.4 nM | – | –
3 | ≤ 500 nM | ≤ 5 nM | ≥ 90% | O=C(Nc1cccc(C(F)(F)F)c1)Nc1ccc(Oc2ncnc3cc[nH]c23)cc1Cl [Example 116, N-[2-chloro-4-(5H-pyrrolo[3,2-d]pyrimidin-4-yloxy)phenyl]-N′-[3-(trifluoromethyl)phenyl]urea p-toluenesulfonic Acid Salt] | 3.4 nM | – | –
4 | – | – | – | O=C(Nc1cccc(C(F)(F)F)c1)Nc1ccc(Oc2ncnc3cc[nH]c23)cc1Cl [Example 39, N-[2-chloro-4-(5H-pyrrolo[3,2-d]pyrimidin-4-yloxy)phenyl]-N′-[3-(trifluoromethyl)phenyl]urea] | – | 4.8 nM | –
5 | – | ≤ 5 nM | ≥ 90% | Cn1ccc2ncnc(Oc3ccc(NC(=O)Nc4cc(C(F)(F)F)ccc4F)c(Cl)c3)c21 [Example 40, N-{2-chloro-4-[(5-methyl-5H-pyrrolo[3,2-d]pyrimidin-4-yl)oxy]phenyl}-N′-[2-fluoro-5-(trifluoromethyl)phenyl]urea] | – | 11 nM | –
6 | – | – | – | Cc1cc2ncnc(Oc3ccc(NC(=O)Nc4cccc(C(F)(F)F)c4)c(Cl)c3)c2n1C [Example 134, N-{2-chloro-4-[(5,6-dimethyl-5H-pyrrolo[3,2-d]pyrimidin-4-yl)oxy]phenyl}-N′-[3-(trifluoromethyl)phenyl]urea hydrochloride] | – | – | 5.4 nM
7 | – | – | ≥ 90% | Cn1ccc2ncnc(Oc3ccc(NC(=O)Nc4cc(C(F)(F)F)ccn4)c(Cl)c3)c21 [Example 30, N-{2-chloro-4-[(5-methyl-5H-pyrrolo[3,2-d]pyrimidin-4-yl)oxy]phenyl}-N′-[4-(trifluoromethyl)pyridin-2-yl]urea] | 2.7 nM | – | –
8 | ≤ 500 nM | ≤ 5 nM | ≥ 90% | O=C(Nc1cccc(C(F)(F)F)c1)Nc1ccc(Oc2ncnc3ccn(CCOCCO)c23)cc1Cl [Example 14, N-[2-chloro-4-({5-[2-(2-hydroxyethoxy)ethyl]-5H-pyrrolo[3,2-d]pyrimidin-4-yl}oxy)phenyl]-N′-[3-(trifluoromethyl)phenyl]urea] | – | 33 nM | –
9 | – | ≤ 5 nM | – | Cn1ccc2ncnc(Oc3ccc(NC(=O)Nc4cc(C(F)(F)F)ccn4)c(Cl)c3)c21 [Example 60, N-{2-chloro-4-[(5-methyl-5H-pyrrolo[3,2-d]pyrimidin-4-yl)oxy]phenyl}-N′-[4-(trifluoromethyl)pyridin-2-yl]urea Methanesulfonic Acid Salt] | 6.5 nM | – | –
10 | – | ≤ 5 nM | ≥ 90% | Cn1ccc2ncnc(Oc3ccc(NC(=O)Nc4cccc(C(F)(F)F)c4)c(F)c3)c21 [Example 137, N-{2-fluoro-4-[(5-methyl-5H-pyrrolo[3,2-d]pyrimidin-4-yl)oxy]phenyl}-N′-[3-(trifluoromethyl)phenyl]urea Hydrochloride] | – | 3.6 nM | –
